Assay results taken from BindingDB's records for doi:10.1021/jm990236h (University of Michigan, 2000).

Assay: Antiviral activity was evaluated by Reverse transcriptase activity in cells acutely infected with HIV-1

Compound | IC50 [nM]
CCCCCCCCCC(=O)NC1=NN(C)c2ncnc3c2c1cn3C1O[C@H](CO)[C@@H](O)[C@H]1O (stereo partly drawn) | 250
CCCCCCCCC(=O)NC1=NN(C)c2ncnc3c2c1cn3C1O[C@H](CO)[C@@H](O)[C@H]1O (stereo partly drawn) | 800
CCCCCCCCCCCC(=O)NC1=NN(C)c2ncnc3c2c1cn3C1O[C@H](CO)[C@@H](O)[C@H]1O (stereo partly drawn) | 1000
CCCCCCCC(=O)NC1=NN(C)c2ncnc3c2c1cn3C1O[C@H](CO)[C@@H](O)[C@H]1O (stereo partly drawn) | 100

Assay: Antiviral activity was evaluated by RT (reverse transcriptase) activity in cells acutely infected with HIV-1

Compound | IC50 [nM]
CN1N=C(NC(=O)c2ccccc2)c2cn(C3O[C@H](CO)[C@@H](O)[C@H]3O)c3ncnc1c23 (stereo partly drawn) | > 100000
CC(C)C(=O)NC1=NN(C)c2ncnc3c2c1cn3C1O[C@H](CO)[C@@H](O)[C@H]1O (stereo partly drawn) | 8000
CCCCCC(=O)NC1=NN(C)c2ncnc3c2c1cn3C1O[C@H](CO)[C@@H](O)[C@H]1O (stereo partly drawn) | 350
CCCC(=O)NC1=NN(C)c2ncnc3c2c1cn3C1O[C@H](CO)[C@@H](O)[C@H]1O (stereo partly drawn) | 500
CCC(=O)NC1=NN(C)c2ncnc3c2c1cn3C1O[C@H](CO)[C@@H](O)[C@H]1O (stereo partly drawn) | 8400
CC(=O)NC1=NN(C)c2ncnc3c2c1cn3C1O[C@H](CO)[C@@H](O)[C@H]1O (stereo partly drawn) | 6800
CCCCC(=O)NC1=NN(C)c2ncnc3c2c1cn3C1O[C@H](CO)[C@@H](O)[C@H]1O (stereo partly drawn) | 800
CCCCCCC(=O)NC1=NN(C)c2ncnc3c2c1cn3C1O[C@H](CO)[C@@H](O)[C@H]1O (stereo partly drawn) | 35
CN1N=C(NC(=O)C(C)(C)C)c2cn(C3O[C@H](CO)[C@@H](O)[C@H]3O)c3ncnc1c23 (stereo partly drawn) | > 100000
